Test results taken from ChEMBL document CHEMBL5537159, “Discovery and SAR of JTE-151: A Novel RORγ Inhibitor for Clinical Development” (J Med Chem, 2024).

Legend:
[1] = Lipophilicity, logD of compound by RP-HPLC analysis; type: physicochemical
[2] = Oral bioavailability in CD(SD) rat at 3 mg/kg administered as single dose and measured after 24 hrs; type: ADME, organism-based; conditions: in vivo
[3] = AUCinfinity in CD(SD) rat at 3 mg/kg, po administered as single dose and measured after 24 hrs; type: ADME, organism-based; conditions: in vivo
[4] = target: T1, Nuclear receptor ROR-gamma (Homo sapiens, UniProt P51449); assay: Inhibition of GAL4 DNA-binding domain fused RORgamma (unknown origin) transfected in CHO-K1 cells incubated for 2 days by luciferase assay; type: cell-based
T1 sequence (P51449 whole entry): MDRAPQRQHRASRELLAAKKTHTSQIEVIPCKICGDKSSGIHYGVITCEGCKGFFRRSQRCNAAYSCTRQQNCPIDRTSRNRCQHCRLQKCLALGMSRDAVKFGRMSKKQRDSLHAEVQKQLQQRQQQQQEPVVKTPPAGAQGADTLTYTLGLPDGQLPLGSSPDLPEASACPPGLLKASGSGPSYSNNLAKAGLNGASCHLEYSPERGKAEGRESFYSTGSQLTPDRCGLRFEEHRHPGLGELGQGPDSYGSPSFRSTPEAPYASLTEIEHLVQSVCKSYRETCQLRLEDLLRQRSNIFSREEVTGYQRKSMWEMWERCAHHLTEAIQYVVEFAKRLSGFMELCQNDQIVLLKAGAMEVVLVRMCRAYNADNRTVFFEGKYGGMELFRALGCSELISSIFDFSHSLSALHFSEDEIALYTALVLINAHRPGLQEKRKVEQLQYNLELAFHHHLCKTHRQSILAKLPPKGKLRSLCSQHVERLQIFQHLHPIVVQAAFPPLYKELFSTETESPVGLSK

[5] = MRT in CD(SD) rat at 3 mg/kg, po administered as single dose and measured after 24 hrs; type: ADME, organism-based; conditions: in vivo
[6] = Total body clearance in CD(SD) rat at 1 mg/kg, iv administered as single dose and measured after 24 hrs; type: ADME, organism-based; conditions: in vivo
[7] = Apparent permeability in human Caco-2 cells at 25 umol/L incubated for 2 hrs by LC/MS/MS analysis; type: ADME, cell-based; conditions: dose 25 µmol/L
[8] = Metabolic stability in human liver microsomes assessed as compound remaining at 5 umol/L measured after 60 mins by UPLC/MS analysis; type: ADME, Microsome; conditions: dose 5 µmol/L, read-out: Stability
[9] = Elimination half life in CD(SD) rat at 1 mg/kg, iv administered as single dose and measured after 24 hrs; type: ADME, organism-based; conditions: in vivo, read-out: beta t1/2 (converted)
[10] = Volume of distribution at steady state in CD(SD) rat at 1 mg/kg, iv administered as single dose and measured after 24 hrs; type: ADME, organism-based; conditions: in vivo, read-out: Vdss

Structure (SMILES) | logD [1] | bioavailability [2] [%] | AUC(0-inf) [3] [µM·h] | EC50 [4] [nM] | MRT [5] [h] | clearance [6] [mL/min/kg] | Papp at 2 h, 25 µM [7] [×10⁻⁶ cm/s] | remaining at 1 h, 5 µM [8] [%] | half-life [9] [h] | Vd [10] [L/kg]
Cc1ccc(NC(=O)C[C@H](CCC(=O)O)n2nnc([C@H]3C[C@@H](CC(C)(C)C)C3)c2C2CC2)c(Cl)c1 | 4.3 | 61 | 2 | 22 | 2.5 | 30 | 22.6 | 73 | 1.5 | 1.4
Cc1ccc(NC(=O)C[C@H](CC(=O)O)c2noc([C@H]3C[C@@H](CC(C)C)C3)c2C(C)C)c(C)c1 | 4.4 | – | – | 660 | – | – | 23.3 | 37 | – | –
Cc1ccc(NC(=O)C[C@H](CCC(=O)O)c2nnn([C@H]3C[C@@H](CC(C)(C)C)C3)c2C2CC2)c(Cl)c1 | 4.2 | 46 | 2.8 | – | 3.6 | 16.5 | 30.9 | 86 | 1.5 | 0.67
Cc1ccc(NC(=O)CC(c2nnc([C@H]3C[C@@H](CC(C)C)C3)n2C2CC2)C2CNC2)c(C)c1.Cl (mixture of isomers) | 3.7 | – | – | > 20000 | – | – | < 0.1 | 95 | – | –
